What was measured:
Assay type in all cases: cell-based, human
J82 cells = test: CCK-8 anti-proliferative assay, J82; settings: Homo sapiens, J82; Table 6; co-incubated 48 h; read-out: Anti-proliferative activity (IC50 ± standard deviation) J82
Experimental: (§1) The obtained quinazolinyl-aryl urea derivatives were screened for compounds with optimal activity using the following method.
(§2) Experimental Procedure for Anti-Proliferative Activity Evaluation: The CCK-8 assay was employed. Cells in logarithmic growth phase were harvested, adjusted to appropriate density, and uniformly seeded into 96-well plates using a multichannel pipette (180 μL cell suspension containing complete medium per well, 5,000 cells/well). Blank control wells (containing basal medium, CCK-8 solution, and DMSO only) were set. Cells were incubated at 37° C. under 5% CO2. After 70% confluency was reached, test compounds (target compounds/positive controls) were added at final concentrations of 1, 2, 4, 6, 8, 12, 16, 24, and 30 μM (3 repeated wells per concentration). Compounds were pre-dissolved in DMSO, sterilized, and diluted with medium before adding 20 μL/well. After co-incubation for designated durations, 10 μL CCK-8 solution was added per well followed by 1-4 h incubation (different cells have different incubation times). […] Inhibition rates were calculated as: (ODcontrol−ODtreatment)/ODcontrol×100%. Median inhibitory concentrations (IC50 values) were derived using Origin v8.0 software.

UM-UC-3 cells = test: CCK-8 anti-proliferative assay, UM-UC-3; settings: Homo sapiens, UMUC3; Table 6; co-incubated 48 h; read-out: Anti-proliferative activity (IC50 ± standard deviation) UM-UC-3
Experimental: as §1, §2

T24 cells = test: CCK-8 anti-proliferative assay, T24; settings: Homo sapiens, T-24; Table 6; co-incubated 48 h; read-out: Anti-proliferative activity (IC50 ± standard deviation) T24
From the text: (§3) The obtained quinazolinyl-aryl urea derivatives were screened for compounds with optimal activity using the following method. All cell lines employed in this experiment were of human origin, including: bladder cancer cells: J82, UM-UC-3, T24, 5637, pancreatic cancer cells: BxPC-3, PANC-1, osteosarcoma cells: 143B, MG-63, cervical cancer cells: HeLa, breast cancer cells: MCF-7, NSCLC cells: A549, hepatoblastoma cells: Hep G2, and ovarian cancer cells: SK-OV-3, as well as normal cell lines: immortalized ureteral epithelial cells (SV-HUC-1), embryonic lung fibroblasts (WI-38).
(§4) Experimental Procedure for Anti-Proliferative Activity Evaluation: The CCK-8 assay was employed. Cells in logarithmic growth phase were harvested, adjusted to appropriate density, and uniformly seeded into 96-well plates using a multichannel pipette (180 μL cell suspension containing complete medium per well, 5,000 cells/well). Blank control wells (containing basal medium, CCK-8 solution, and DMSO only) were set. Cells were incubated at 37° C. under 5% CO2. After 70% confluency was reached, test compounds (target compounds/positive controls) were added at final concentrations of 1, 2, 4, 6, 8, 12, 16, 24, and 30 μM (3 repeated wells per concentration). Compounds were pre-dissolved in DMSO, sterilized, and diluted with medium before adding 20 μL/well. After co-incubation for designated durations, 10 μL CCK-8 solution was added per well followed by 1-4 h incubation (different cells have different incubation times). The reaction was terminated, and OD (optical density) values at 450 nm were measured using a microplate reader. Inhibition rates were calculated as: (ODcontrol−ODtreatment)/ODcontrol×100%. Median inhibitory concentrations (IC50 values) were derived using Origin v8.0 software.

5637 cells = test: CCK-8 anti-proliferative assay, 5637; settings: Homo sapiens; Table 6; co-incubated 48 h; read-out: Anti-proliferative activity (IC50 ± standard deviation) 5637
Experimental: as §1, §2

143B cells = test: CCK-8 anti-proliferative assay, 143B; settings: Homo sapiens, 143B; Table 7; co-incubated 48 h; read-out: Anti-proliferative activity (IC50 ± standard deviation) 143B
From the text: as §3, §4

MG-63 cells = test: CCK-8 anti-proliferative assay, MG-63; settings: Homo sapiens, MG-63; Table 7; co-incubated 48 h; read-out: Anti-proliferative activity (IC50 ± standard deviation) MG-63
From the text: as §3, §4

BxPC-3 cells = test: CCK-8 anti-proliferative assay, BxPC-3; settings: Homo sapiens, BXPC-3; Table 7; co-incubated 48 h; read-out: Anti-proliferative activity (IC50 ± standard deviation) BxPC-3
From the text: as §3, §4

PANC-1 cells = test: CCK-8 anti-proliferative assay, PANC-1; settings: Homo sapiens, PANC-1; Table 7; co-incubated 48 h; read-out: Anti-proliferative activity (IC50 ± standard deviation) PANC-1
From the text: as §3, §4

HeLa cells = test: CCK-8 anti-proliferative assay, HeLa; settings: Homo sapiens, HeLa; Table 8; co-incubated 48 h; read-out: Anti-proliferative activity (IC50 ± standard deviation) HeLa
Experimental: as §1, §2

MCF-7 cells = test: CCK-8 anti-proliferative assay, MCF-7; settings: Homo sapiens, MCF7; Table 8; co-incubated 48 h; read-out: Anti-proliferative activity (IC50 ± standard deviation) MCF-7
Experimental: as §1, §2

A549 cells = test: CCK-8 anti-proliferative assay, A549; settings: Homo sapiens, A549; Table 8; co-incubated 48 h; read-out: Anti-proliferative activity (IC50 ± standard deviation) A549
Experimental: as §1, §2

Hep G2 cells = test: CCK-8 anti-proliferative assay, Hep G2; settings: Homo sapiens, HepG2; Table 8; co-incubated 48 h; read-out: Anti-proliferative activity (IC50 ± standard deviation) Hep G2
From the text: as §3, §4

SK-OV-3 cells = test: CCK-8 anti-proliferative assay, SK-OV-3; settings: Homo sapiens, SK-OV-3; Table 9; co-incubated 48 h; read-out: Anti-proliferative activity (IC50 ± standard deviation) SK-OV-3
Experimental: as §1, §2

[1] = system: immortalized ureteral epithelial cells (SV-HUC-1); test: CCK-8 anti-proliferative assay, normal cells SV-HUC-1; settings: Homo sapiens, SV-HUC1; Table 9; normal cells; co-incubated 48 h; read-out: Anti-proliferative activity (IC50 ± standard deviation) SV-HUC-1
Experimental: as §1, §2

[2] = system: embryonic lung fibroblasts (WI-38); test: CCK-8 anti-proliferative assay, normal cells WI-38; settings: Homo sapiens, WI-38, Table 9, co-incubated 48 h, read-out: Anti-proliferative activity (IC50 ± standard deviation) WI-38
From the text: as §3, §4

SMILES	IC50 (J82 cells) [µM]	IC50 (UM-UC-3 cells) [µM]	IC50 (T24 cells) [µM]	IC50 (5637 cells) [µM]	IC50 (143B cells) [µM]	IC50 (MG-63 cells) [µM]	IC50 (BxPC-3 cells) [µM]	IC50 (PANC-1 cells) [µM]	IC50 (HeLa cells) [µM]	IC50 (MCF-7 cells) [µM]	IC50 (A549 cells) [µM]	IC50 (Hep G2 cells) [µM]	IC50 (SK-OV-3 cells) [µM]	IC50 [1] [µM]	IC50 [2] [µM]
COc1cc2ncnc(NCc3cccc(NC(=O)Nc4cccc(C)c4)c3)c2cc1OCCCCCCN1CCN(CCN2CCOCC2)CC1 [Compound 8-1c, N-(3-(((7-methoxy-6-((6-(4-(2-morpholinoethyl)piperazin-1-yl)hexyl)oxy)quinazolin-4-yl)amino)methyl)phenyl)-N′-(3-methylphenyl)urea]	6.05 ± 0.63	14.1 ± 0.82	11.5 ± 0.66	13 ± 0.85	13 ± 0.84	7.34 ± 0.65	16.5 ± 0.92	> 30	> 30	25.8 ± 2.53	18.4 ± 0.98	7.27 ± 0.51	9.73 ± 0.69	16 ± 0.81	13.9 ± 0.73
COc1cc2ncnc(NCc3cccc(NC(=O)Nc4ccc(C)cc4)c3)c2cc1OCCCCCCN1CCN(CCN2CCOCC2)CC1 [Compound 8-1d, N-(3-(((7-methoxy-6-((6-(4-(2-morpholinoethyl)piperazin-1-yl)hexyl)oxy)quinazolin-4-yl)amino)methyl)phenyl)-N′-(4-methylphenyl)urea]	5.89 ± 0.57	13.2 ± 0.77	6.59 ± 0.79	7.72 ± 0.66	8.62 ± 0.53	7.73 ± 0.49	13.7 ± 0.73	27.4 ± 2.24	16.1 ± 0.71	> 30	15.8 ± 0.84	7.04 ± 0.48	9.26 ± 0.87	12.8 ± 0.66	12.6 ± 0.92
CCc1ccccc1NC(=O)Nc1cccc(CNc2ncnc3cc(OC)c(OCCCCCCN4CCN(CCN5CCOCC5)CC4)cc23)c1 [Compound 8-1g, N-(3-(((7-methoxy-6-((6-(4-(2-morpholinoethyl)piperazin-1-yl)hexyl)oxy)quinazolin-4-yl)amino)methyl)phenyl)-N′-(2-ethylphenyl)urea]	19.7 ± 0.98	26 ± 1.79	24.8 ± 0.62	22.5 ± 0.79	19.3 ± 0.74	10.9 ± 0.93	10.8 ± 0.52	13.1 ± 0.78	23 ± 0.99	20.3 ± 1.88	26.4 ± 2.59	12.7 ± 0.74	6.38 ± 0.51	> 30	> 30
CCc1cccc(CC)c1NC(=O)Nc1cccc(CNc2ncnc3cc(OC)c(OCCCCCCN4CCN(CCN5CCOCC5)CC4)cc23)c1 [Compound 8-1h, N-(3-(((7-methoxy-6-((6-(4-(2-morpholinoethyl)piperazin-1-yl)hexyl)oxy)quinazolin-4-yl)amino)methyl)phenyl)-N′-(2,6-diethylphenyl)urea]	5.64 ± 0.39	8.74 ± 0.52	6.89 ± 0.48	5.41 ± 0.36	4.46 ± 0.24	4.92 ± 0.46	7.61 ± 0.76	9.63 ± 0.92	8.03 ± 0.62	8.49 ± 0.88	12.3 ± 0.84	4.67 ± 0.38	6.19 ± 0.44	17.8 ± 1.59	23.2 ± 0.76
COc1cc2ncnc(NCc3cccc(NC(=O)Nc4ccc(C(C)C)cc4)c3)c2cc1OCCCCCCN1CCN(CCN2CCOCC2)CC1 [Compound 8-1i, N-(3-(((7-methoxy-6-((6-(4-(2-morpholinoethyl)piperazin-1-yl)hexyl)oxy)quinazolin-4-yl)amino)methyl)phenyl)-N′-(4-isopropylphenyl)urea]	22.4 ± 1.82	10 ± 0.52	16.3 ± 0.81	10.3 ± 0.97	9.31 ± 0.97	11.1 ± 0.95	13.3 ± 1.05	14.4 ± 0.67	14.1 ± 0.89	11.5 ± 0.76	16 ± 0.64	10.6 ± 0.89	7.68 ± 0.55	19.3 ± 1.39	20.3 ± 1.63
COc1cc2ncnc(NCc3cccc(NC(=O)Nc4ccc(F)cc4)c3)c2cc1OCCCCCCN1CCN(CCN2CCOCC2)CC1 [Compound 8-1l, N-(3-(((7-methoxy-6-((6-(4-(2-morpholinoethyl)piperazin-1-yl)hexyl)oxy)quinazolin-4-yl)amino)methyl)phenyl)-N′-(4-fluorophenyl)urea]	6.85 ± 0.57	16.8 ± 0.88	10.4 ± 0.92	15.8 ± 0.95	9.03 ± 0.61	7.03 ± 0.48	13 ± 0.97	> 30	21.3 ± 1.24	15.2 ± 0.93	21.4 ± 1.96	7.29 ± 0.54	7.72 ± 0.59	15.9 ± 0.86	22.8 ± 0.94
COc1cc2ncnc(NCc3cccc(NC(=O)Nc4ccccc4Cl)c3)c2cc1OCCCCCCN1CCN(CCN2CCOCC2)CC1 [Compound 8-1m, N-(3-(((7-methoxy-6-((6-(4-(2-morpholinoethyl)piperazin-1-yl)hexyl)oxy)quinazolin-4-yl)amino)methyl)phenyl)-N′-(2-chlorophenyl)urea]	7.21 ± 0.66	11.1 ± 0.74	8.82 ± 0.49	6.06 ± 0.58	5.62 ± 0.51	5.69 ± 0.65	7.79 ± 0.44	23.2 ± 2.03	13.8 ± 0.77	14.8 ± 0.86	15 ± 0.93	7.83 ± 0.66	12.8 ± 0.42	12 ± 0.57	14 ± 0.78
COc1cc2ncnc(NCc3cccc(NC(=O)Nc4ccc(Cl)c(Cl)c4)c3)c2cc1OCCCCCCN1CCN(CCN2CCOCC2)CC1 [Compound 8-1o, N-(3-(((7-methoxy-6-((6-(4-(2-morpholinoethyl)piperazin-1-yl)hexyl)oxy)quinazolin-4-yl)amino)methyl)phenyl)-N′-(3,4-dichlorophenyl)urea]	6.88 ± 0.49	5.84 ± 0.53	7.31 ± 0.55	5.34 ± 0.39	5.99 ± 0.43	5.89 ± 0.47	7.73 ± 0.82	> 30	12.4 ± 0.89	9.33 ± 0.71	11.8 ± 0.63	6.83 ± 0.52	9.34 ± 0.98	10.7 ± 0.51	9.93 ± 0.53
